Like-named read-outs stand apart in the source and are kept apart here.
Key:
CB2 receptor = target: T1, CB2 receptor (Mus musculus, UniProt P47936); experiment: CB2 receptor binding, [3H]CP-55,940 displacement; conditions: mouse spleen membranes
T1 construct: membranes were prepared from frozen mouse spleen; from tissue; host or cells: mouse spleen
Experimental: (§1) The treated membranes were subsequently used in the binding assay described below. Approximately 30 μg of membranes were incubated in silanized 96-well microtiter plate with TME containing 0.1% essentially fatty acid-free bovine serum albumin (BSA), 0.8 nM [^3H] CP-55,940, and various concentrations of test materials in a final volume of 200 μL. The assays were incubated for 1 hour at 30° C. and then immediately filtered using Packard Filtermate 196 harvester and Whatman GF/C filterplates and washed with wash buffer (TME) containing 0.5% BSA. Radioactivity was detected using MicroScint 20 scintillation cocktail added directly to the dried filterplates, and the filterplates were counted using a Packard Instruments Top-Count. Nonspecific binding was assessed using 100 nM CP-55,940. Data collected from three independent experiments performed with duplicate determinations was normalized between 100% and 0% specific binding for [^3H] CP-55,940, determined using buffer and 100 nM CP-55,940. The normalized data was analyzed using a 4-parameter nonlinear logistic equation to yield IC50 values.
For the CB2 receptor binding studies, membranes were prepared from frozen mouse spleen essentially according to the procedure of P. R. Dodd et al, A Rapid Method for Preparing Synaptosomes: Comparison with Alternative Procedures, Brain Res., 226, 107-118 (1981) which is incorporated by reference herein. Silanized centrifuge tubes were used throughout to minimize receptor loss due to adsorption. The CB2 binding assay was conducted in the same manner as for the CB1 binding assay. The binding affinities (Ki) were also expressed in nanomoles (nM).

CB1 cannabinoid receptor = target: T2, CB1 cannabinoid receptor (Rattus norvegicus, UniProt P20272); experiment: CB1 receptor binding, [3H]CP-55,940 displacement; conditions: rat forebrain membranes
T2 construct: membranes were prepared from rat forebrain membranes; from tissue; host or cells: rat forebrain
Experimental: Some inventive analogs were tested for CB2 receptor binding affinity and for CB1 receptor affinity (to determine selectivity). […] The lower the Ki value, the higher the binding affinity. […] For the CB1 receptor binding studies, membranes were prepared from rat forebrain membranes according to the procedure of P. R. Dodd et al, A Rapid Method for Preparing Synaptosomes: Comparison with Alternative Procedures, Brain Res., 107-118 (1981). The binding of the novel analogues to the CB1 cannabinoid receptor was assessed as described in W. A. Devane et al, Determination and Characterization of a Cannabinoid Receptor in a Rat Brain, Mol. Pharmacol., 34, 605-613 (1988) and A. Charalambous et al, 5′-azido Δ^8-THC: A Novel Photoaffinity Label for the Cannabinoid Receptor, J. Med. Chem., 35, 3076-3079 (1992) with the following changes. The above articles are incorporated by reference herein.
Membranes, previously frozen at −80° C., were thawed on ice. To the stirred suspension was added three volumes of TME (25 mM Tris-HCl buffer, 5 mM MgCl2 and 1 mM EDTA) at a pH 7.4. The suspension was incubated at 4° C. for 30 min. At the end of the incubation, the membranes were pelleted and washed three times with TME.
as §1

Mag-lipase = target: T3, Mag-lipase (Rattus norvegicus, UniProt Q8R431); experiment: Inhibition of MAG-lipase: 2-AG metabolism to arachidonic acid; assay type: biochemical; conditions: 30 nmoles compound with 30 nmoles 2-AG, 30 μg enzyme, 300 μL, 20 min
T3 construct: supernatant from final spin in the anandamide amidase preparation; from tissue; host or cells: supernatant (soluble fraction) of the anandamide amidase preparation, rat brain by the cited procedure
T3 sequence (Q8R431 1-303): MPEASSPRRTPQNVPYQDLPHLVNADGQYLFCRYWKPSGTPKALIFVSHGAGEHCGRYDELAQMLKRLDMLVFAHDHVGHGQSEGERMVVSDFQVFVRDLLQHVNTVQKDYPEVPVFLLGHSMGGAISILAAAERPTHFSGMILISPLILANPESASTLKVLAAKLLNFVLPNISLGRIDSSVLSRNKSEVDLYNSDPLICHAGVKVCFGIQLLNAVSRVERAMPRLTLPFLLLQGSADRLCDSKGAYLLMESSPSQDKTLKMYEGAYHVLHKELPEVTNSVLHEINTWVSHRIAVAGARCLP
Experimental: (§2) All compound solutions were made to a concentration of 10 mM in DMSO. Three tests were performed on each compound: hydrolysis, to determine the stability of the compound in assay conditions without the enzyme present; metabolism, to determine the stability of the compound with the enzyme present; and inhibition of 2-Arachidonoyl glycerol (native substrate) metabolism to arachidonic acid.
(§3) The inhibition of 2-AG metabolism was measured by mixing 30 nmoles of the compound with 30 nmoles 2-AG, and 30 μg enzyme preparation in TME buffer (final volume of 300 μL). Again the reaction mixture was treated in the same manner as described above and the concentrations of 2-AG and AA were calculated using external standards. Percent inhibition was calculated using the following equation: % Inhib.=(AA20-AA0)i/(AA20-AA0)s where (AA20-AA0)i is the amount of arachidonic acid formed over 20 minutes from 2-AG with the inhibitor present and (AA20-AA0)s is the amount of arachidonic acid formed over 20 minutes from 2-AG when the inhibitor is not present. […] The reaction mixtures were treated as described above and the amount of AA formed was calculated. The software package GraphPad Prism was utilized to calculate IC50 and Ki. HPLC Conditions:
(§4) Chromatographic separation was achieved using an Ultrasphere ODS Pre-column (4.6×45 mm) from Beckman. Hardware consisted of a Waters Millennium HPLC system with a 20 μL injection loop. The mobile phase consisted of 8.5% o-phosphoric acid:acetonitrile (3:7), run isocratically at a rate of 1 mL/min and detection at 204 nm. The total run time was 8 minutes with 2-AG eluting at 3.0 minutes and AA at 6.0 minutes.

anandamide transporter = experiment: [3H]Anandamide transporter competition assay; assay type: cell-based; conditions: human CCF-STG1 astrocytoma cells, 10 nM [3H]anandamide
Experimental: Human CCF-STG1 astrocytoma cells (American Type Culture collection) were grown in RPMI1640 culture medium containing 2 mM L-glutamine, 4.5 g/L glucose, 10 mM HEPES, and 1.0 mM sodium pyruvate, 10% FBS, cultures at 37° C. with 5% CO2. For standard competition assays, confluent cells grown in 24-well plates were rinsed and preincubated for 10 min at 37° C. in assay buffer (Hank's Balanced Salt Solution containing 0.1% DMSO, 10 mM HEPES) plus test compounds (at their final concentrations of 0.01-100 μM). After having discarded the preincubation media, the cells were incubated for 4 min in 0.2 ml assay buffer containing 10 nM [^3H] anandamide (137.6 Ci/mmol, New England Nuclear) plus test compounds. Reactions were stopped by removing the incubation media and rinsing the cells three times with 0.5 ml of ice-cold HBSS buffer containing 0.1% fatty acid-free Bovine Serum Albumin (sigma). Radioactive material in Triton X-100 cell extracts was measured by liquid scintillation counting. A minimum of three independent experiments conducted in six replicates was used to define the concentration needed to produce half-maximal inhibition (IC50) for each compound. IC50 values were obtained by nonlinear regression fitting of the data, using the PRIZM software package. Data are expressed as mean±SEM.

[1] = target: T4, FAAH (fatty acid amide hydrolase) (Rattus norvegicus, UniProt P97612); experiment: FAAH screening: inhibition of anandamide metabolism to arachidonic acid; assay type: biochemical; conditions: 25 nmoles compound with 25 nmoles AEA, 75 μg enzyme, 250 μL, 15 min
T4 construct: Anandamide Amidase Activity in Rat Brain Microsomes; from tissue; host or cells: rat brain microsomes (by the cited procedure)
T4 sequence (P97612 1-579): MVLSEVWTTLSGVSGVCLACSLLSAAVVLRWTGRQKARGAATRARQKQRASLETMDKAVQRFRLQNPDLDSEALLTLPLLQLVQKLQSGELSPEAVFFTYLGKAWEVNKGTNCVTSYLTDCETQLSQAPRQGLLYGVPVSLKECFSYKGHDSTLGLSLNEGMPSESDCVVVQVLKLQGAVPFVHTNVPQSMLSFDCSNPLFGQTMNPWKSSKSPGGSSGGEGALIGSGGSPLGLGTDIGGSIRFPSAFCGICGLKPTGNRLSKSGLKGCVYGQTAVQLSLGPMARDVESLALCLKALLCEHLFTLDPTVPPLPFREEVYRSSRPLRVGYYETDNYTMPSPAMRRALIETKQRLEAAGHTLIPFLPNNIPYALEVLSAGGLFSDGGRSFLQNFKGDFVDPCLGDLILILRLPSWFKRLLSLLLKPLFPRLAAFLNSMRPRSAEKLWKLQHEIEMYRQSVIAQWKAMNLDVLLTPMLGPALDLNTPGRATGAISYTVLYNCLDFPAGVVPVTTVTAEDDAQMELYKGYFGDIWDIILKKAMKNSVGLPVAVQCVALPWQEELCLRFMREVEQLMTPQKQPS
Experimental: The FAAH (fatty acid amide hydrolase) enzyme preparation was obtained according to the procedure of Lang and Makriyannis et al High Performance Liquid Chromatographic Determination of Anandamide Amidase Activity in Rat Brain Microsomes, Analytical Biochemistry (238): 40-45, 1996.
as §2, with “anandamide” for “2-Arachidonoyl glycerol”
as §3, with “Again” for “The inhibition of 2-AG metabolism was measured by mixing 30 nmoles of the compound with 30 nmoles 2-AG, and 30 μg enzyme preparation in TME buffer (final volume of 300 μL). Again”, “AEA” for “2-AG”, “Inhib.=(AA15-AA0)i/(AA15-AA0)s” for “Inhib.=(AA20-AA0)i/(AA20-AA0)s”, “(AA15-AA0)c” for “(AA20-AA0)i”, “15” for “20”, “(AA15-AA0)s” for “(AA20-AA0)s”
as §4, with “AEA” for “2-AG”, “2.2” for “3.0”

[2] = with PMSF (second value of cell), read-out: Ki CB1 (nM) (o/w PMSFQ)
[3] = without PMSF (first value of cell), read-out: Ki CB1 (nM) (o/w PMSFQ)
[4] = with PMSF (second value of cell), read-out: Ki CB1 (nM) (o/w PMSF)
[5] = without PMSF (first value of cell), read-out: Ki CB1 (nM) (o/w PMSF)

T1 sequence (P47936 whole entry): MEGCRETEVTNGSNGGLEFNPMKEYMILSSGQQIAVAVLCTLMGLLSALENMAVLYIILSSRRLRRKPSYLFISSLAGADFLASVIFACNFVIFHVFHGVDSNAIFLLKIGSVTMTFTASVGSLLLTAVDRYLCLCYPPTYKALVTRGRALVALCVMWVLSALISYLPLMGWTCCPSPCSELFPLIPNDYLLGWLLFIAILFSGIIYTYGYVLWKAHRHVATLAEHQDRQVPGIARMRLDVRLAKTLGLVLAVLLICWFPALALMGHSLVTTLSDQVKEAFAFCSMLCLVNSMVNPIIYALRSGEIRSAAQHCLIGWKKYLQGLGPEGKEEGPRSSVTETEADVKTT
T2 sequence (P20272 whole entry): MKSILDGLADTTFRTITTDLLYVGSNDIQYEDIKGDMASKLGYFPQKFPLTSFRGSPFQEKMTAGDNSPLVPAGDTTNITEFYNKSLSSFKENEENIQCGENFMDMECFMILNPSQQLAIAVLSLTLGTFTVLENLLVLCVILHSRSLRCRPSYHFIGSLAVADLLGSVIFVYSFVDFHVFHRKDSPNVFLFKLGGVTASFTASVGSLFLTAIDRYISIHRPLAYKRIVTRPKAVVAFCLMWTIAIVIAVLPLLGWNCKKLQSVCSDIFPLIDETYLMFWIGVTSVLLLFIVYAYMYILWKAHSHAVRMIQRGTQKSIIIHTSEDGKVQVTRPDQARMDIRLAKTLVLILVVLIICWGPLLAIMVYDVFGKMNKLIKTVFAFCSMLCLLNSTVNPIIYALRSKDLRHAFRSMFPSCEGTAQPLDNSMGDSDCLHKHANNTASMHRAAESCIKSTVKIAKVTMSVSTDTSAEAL

SMILES	Ki (CB2 receptor)	Ki (CB1 cannabinoid receptor; [2])	Ki (CB1 cannabinoid receptor; [3])	Mag-Lipase % Inhibition (Mag-lipase)	IC50 (anandamide transporter; read-out: IC50 AT inhibition)	Ki (CB1 cannabinoid receptor; [4])	Ki (CB1 cannabinoid receptor; [5])	IC50 (anandamide transporter; read-out: IC50 (AT inhib.))	FAAH % Inhibition [1]	inhibition at 100 µM (Mag-lipase)
CCCCCN(C)C/C=C\C/C=C\C/C=C\C/C=C\CCCCNC(=O)c1ccc(O)cc1 [Compound A26]	2910 nM	2150 nM	4720 nM	9.8%	5400 nM	–	–	–	–	–
CCCCCN(C)C/C=C\C/C=C\C/C=C\C/C=C\CCCCNC(=O)c1ccc(O)cc1 [Compound A27]	2560 nM	1620 nM	2220 nM	4.2%	7100 nM	–	–	–	–	–
CCCCCC=CCC=CCC=CCC=CCCCCOC(=O)NCC(C)O (stereo not shown) [Compound B4]	254 nM	–	–	–	–	320 nM	338 nM	400 nM	7%	–
CCCCC/C=C\C/C=C\C/C=C\C/C=C\CCCCOC(=O)NC(C)C [Compound B5]	543 nM	–	–	–	–	343 nM	510 nM	21900 nM	4.5%	–
CCCCC/C=C\C/C=C\C/C=C\C/C=C\CCCCOC(=O)Nc1ccc(O)cc1 [Compound B9]	533 nM	–	–	–	–	3300 nM	5390 nM	6600 nM	27.3%	–
CCCCC/C=C\C/C=C\C/C=C\C/C=C\CCCCOC(=O)NC1=NCCS1 [Compound B10]	–	–	–	34.0%	–	–	–	8600 nM	–	–
CCCCC/C=C\C/C=C\C/C=C\C/C=C\CCCCOC(=O)Nc1cccnc1 [Compound B11]	185 nM	–	–	–	–	96.4 nM	302 nM	16100 nM	–	16.8%
CCCCCCCCC=CCCCCCCCCOC(=O)NCC(C)O (stereo not shown) [Compound B13]	2600 nM	–	–	13.1%	–	2240 nM	4750 nM	5920 nM	–	–

From patent publication US8202893B2, “Cannabinergic lipid ligands” (University of Connecticut, priority 2004, dated 2012)
